# Measurements from patent US4128541A, “Pentapeptide with morphine- like activity” (American Home Products Corporation, priority 1976, dated 1978).
# Ends that are not written are not given here.
# What was measured:
# mouse vas deferens = conditions: literature, Hughes et al.; cited from earlier work
# guinea pig ileum [1] = conditions: literature, Hughes et al.; cited from earlier work
# rats [2] = conditions: injection in the brain ventricle in rats; fully reversible by naloxone; Beluzzi et al.; cited from earlier work
# rats [3] = assay: rat-tail flick method of D'Amour and Smith (analgesia); format: in vivo; conditions: for Mean % Change ± SEM (latency, drug minus baseline) / Mean Latency ± SEM, Drug: injected into the lateral ventricle in Ringer's solution, 100 μg (morphine sulfate 10 μg)
# Method: In this test method, which is a standard test for analgesia, a light beam is focused on the tip of the rat's tail, and the pain threshold of the animal is measured by the latency of the rat to remove his tail from the noxious heat source. When tested by the rat-tail flick method by intracerebroventricular injection, according to the procedure of Belluzzi et al., Nature, 260, 625 (1976), the pentapeptide H-Tyr-Gly-Gly-Phe-Ser-OHproduced the effects set forth in Table I.
# *All drugs were dissolved in […] of Ringer's solution and injected into
# the lateral ventricle through permanently-indwelling cannulae.
# *Subcutaneous in saline solution.
# [4] = tested on: opiate receptor (3H-naloxone binding) in brain homogenates; conditions: literature; cited from earlier work
# opiate receptors = assay: binding to opiate receptors in vitro; conditions: effect blocked by naloxone
# guinea pig ileum [5] = assay: electrically-induced contraction of guinea pig ileum; conditions: effect blocked by naloxone
# From the text: Enkephalin, a natural opiate receptor agonist in brain, has been identified [see Hughes et al., Nature, 256, 577(1975)] as a mixture of two pentapeptides: H-Tyr-Gly-Gly-Phe-Met-OH (methionine-enkephalin) and H-Tyr-Gly-Gly-Phe-Leu-OH (leucine-enkephalin).
# rats [6] = assay: rat-tail flick method of D'Amour and Smith (analgesia); format: in vivo; conditions: intravenous (i.v.) injection, 5 mg/kg
# [7] = rat-tail flick, 10 mg/kg subcutaneous in saline solution
Compound,block of electrically evoked contractions of mouse vas deferens (in words) (mouse vas deferens),block of electrically evoked contractions of guinea pig ileum (in words) (guinea pig ileum [1]),analgesia (in words) (rats [2]),"Mean % Change ± SEM (latency, drug minus baseline) (rats [3]; rat-tail flick) [%]","Mean Latency ± SEM, Drug (rats [3]; rat-tail flick)",inhibition of stereospecific receptor binding of 3H-naloxone (in words) [4],binding to opiate receptors in vitro (in words) (opiate receptors),"pain threshold (in words) (rats [3]; injection into the lateral brain ventricle, significant difference versus vehicle)",Mean % Change ± SEM (latency) (rats [3]; [7]) [%],"Mean Latency ± SEM, Pentapeptide (rats [3]; [7])","analgesic effect (in words) (rats [3]; subcutaneous (s.c.) injection, 10 mg/kg in saline)",block of electrically-induced contraction of guinea pig ileum (in words) (guinea pig ileum [5]),analgesic activity (in words) (rats [6])
"CSCC[C@H](NC(=O)[C@H](Cc1ccccc1)NC(=O)CNC(=O)CNC(=O)[C@@H](N)Cc1ccc(O)cc1)C(=O)O [Methionine-Enkephalin, H-Tyr-Gly-Gly-Phe-Met-OH]",mimic the ability of morphine to block,mimic the ability of morphine to block,profound analgesia,37.2,5.19,inhibit,–,–,–,–,–,–,–
CN1CC[C@]23c4c5ccc(O)c4O[C@H]2[C@@H](O)C=C[C@H]3[C@H]1C5.O=S(=O)(O)O [Morphine Sulfate],–,–,–,65.4,6.59,–,–,–,–,–,–,–,–
H-Tyr-Gly-Gly-Phe-Leu-OH [leucine-enkephalin],mimic the ability of morphine to block,mimic the ability of morphine to block,profound analgesia,–,–,inhibit,–,–,–,–,–,–,–
"YGGFS [H-Tyr-Gly-Gly-Phe-Ser-OH, L-Tyrosyl-Glycyl-Glycyl-L-Phenylalanyl-L-Serine]",–,–,–,39.25,5.77,–,weak binding,increase in pain threshold,26.16 ± 14.36,5.15 ± 0.60,weak analgesic effect,blocks,no analgesic activity
